This is an account of results in ChEMBL document CHEMBL3046585, “Antifungal activity of a novel quercetin derivative bearing a trifluoromethyl group on Candida albicans” (Med Chem Res, 2012).

Broadly, the logP is a log measure of how a compound divides between an organic and an aqueous phase.

The test system of data set [1] is Candida albicans. Kind of data set: Antifungal activity against Candida albicans PC31 at 0.06 mg/ml after 48 hr. Type of data set: functional, organism-based.
Data set [2] deals with Candida albicans. As to the kind of experiment: Antifungal activity against Candida albicans PC31 at 0.15 mg/ml after 48 hr. Type of data set: functional, organism-based.
Data set [3] has as its system Candida albicans. Kind of data set: Antifungal activity against Candida albicans PC31 at 0.30 mg/ml after 48 hr. Type of data set: functional, organism-based.
Data set [4] relates to Candida albicans. Kind of data set: Antifungal activity against Candida albicans PC31 at 0.40 mg/ml after 48 hr. In kind it is functional, organism-based.
Data set [5] relates to Candida albicans. As to the kind of experiment: Antifungal activity against Candida albicans PC31 at 0.50 mg/ml after 48 hr. Type of data set: functional, organism-based.
Data set [6] concerns Candida albicans. Kind of data set: Antifungal activity against Candida albicans PC31 at 0.60 mg/ml after 48 hr. Type of data set: functional, organism-based.
The test system of data set [7] is Candida albicans. Kind of data set: Antifungal activity against Candida albicans PC31 at 1.25 mg/ml after 48 hr. Type of data set: functional, organism-based.
The subject of data set [8] is Candida albicans. Kind of data set: Antifungal activity against Candida albicans PC31 at 1.30 mg/ml after 48 hr. In kind it is functional, organism-based.
Data set [9] concerns Candida albicans. Kind of data set: Antifungal activity against Candida albicans PC31 at 1.60 mg/ml after 48 hr. Type of data set: functional, organism-based.
Data set [10] relates to Candida albicans. Kind of data set: Antifungal activity against Candida albicans PC31 at 1.90 mg/ml after 48 hr. In kind it is functional, organism-based.
The subject of data set [11] is Candida albicans. As to the kind of experiment: Antifungal activity against Candida albicans PC31 at 2.10 mg/ml after 48 hr. In kind it is functional, organism-based.
Data set [12] relates to Candida albicans. Kind of data set: Antifungal activity against Candida albicans PC31 at 2.50 mg/ml after 48 hr. In kind it is functional, organism-based.
The subject of data set [13] is Candida albicans. As to the kind of experiment: Antifungal activity against Candida albicans PC31 at 2.20 mg/ml after 48 hr. In kind it is functional, organism-based.
Data set [14] is described as follows: 1-octanol-water partition coefficient, log P of the compound. Type of data set: physicochemical.

SMILES strings stand for the structures. The source made the active and inactive calls. The calls are words filed in the database; no cut-off is given here.

As for `C[C@@H]1O[C@@H](OC[C@H]2O[C@@H](Oc3c(-c4ccc(O)c(O)c4)oc4cc(O)cc(O)c4c3=O)[C@H](O)[C@@H](O)[C@@H]2O)[C@H](O)[C@H](O)[C@H]1O` [RUTIN], the result in the data set on Candida albicans [1], in the data set with Candida albicans [2], in the data set with Candida albicans [3], in the data set with Candida albicans [4], in the data set with Candida albicans [5] and with Candida albicans [6] was inactive. Also, the outcome with Candida albicans [7], with Candida albicans [8], in the data set on Candida albicans [9], in the data set on Candida albicans [10] and in the data set on Candida albicans [11] was inactive. The outcome in the data set with Candida albicans [12] and with Candida albicans [13] was Active. The same molecule yielded a logP in data set [14] of 0.31.
Regarding `O=c1c(O)c(-c2ccc(O)c(Oc3c([N+](=O)[O-])cc(C(F)(F)F)cc3[N+](=O)[O-])c2)oc2cc(O)cc(O)c12`, the outcome with Candida albicans [1], in the data set on Candida albicans [2], in the data set on Candida albicans [3], with Candida albicans [4] and with Candida albicans [5] was inactive. In addition, the result with Candida albicans [6], in the data set with Candida albicans [7], with Candida albicans [8], in the data set with Candida albicans [9], in the data set on Candida albicans [10] and in the data set on Candida albicans [11] was Active. Also, the outcome in the data set on Candida albicans [12] and in the data set on Candida albicans [13] was Active. Also, in data set [14], the log partition coefficient (logP) was determined as 0.62.
